PubChem BioAssay (NCI)
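Following 48 hours of exposure in 96-well plates, responses at five concentrations were used to interpolate endpoints linearly. TGI is the concentration that stops growth completely.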

Experiments:
Assay in all cases: growth of human tumour cells (NCI), 48 h
786-0 renal = tested on: 786-0 renal
A498 renal = tested on: A498 renal
A549 NSCLC = tested on: A549 NSCLC
ACHN renal = tested on: ACHN renal
BT-549 breast = tested on: BT-549 breast
CAKI-1 renal = tested on: CAKI-1 renal
COLO 205 colon = tested on: COLO 205 colon
DU-145 prostate = tested on: DU-145 prostate
EKVX NSCLC = tested on: EKVX NSCLC
HCC-2998 colon = tested on: HCC-2998 colon
HCT-116 colon = tested on: HCT-116 colon
HCT-15 colon = tested on: HCT-15 colon
HL-60(TB) leukemia = tested on: HL-60(TB) leukemia
HOP-62 NSCLC = tested on: HOP-62 NSCLC
HOP-92 NSCLC = tested on: HOP-92 NSCLC
HS 578T breast = tested on: HS 578T breast
HT29 colon = tested on: HT29 colon
IGROV1 ovarian = tested on: IGROV1 ovarian
K-562 leukemia = tested on: K-562 leukemia
KM12 colon = tested on: KM12 colon
LOX IMVI melanoma = tested on: LOX IMVI melanoma
M14 melanoma = tested on: M14 melanoma
MALME-3M melanoma = tested on: MALME-3M melanoma
MCF7 breast = tested on: MCF7 breast
MDA-MB-231 breast = tested on: MDA-MB-231 breast
MDA-MB-435 = tested on: MDA-MB-435
MDA-N = tested on: MDA-N
MOLT-4 leukemia = tested on: MOLT-4 leukemia
NCI-H226 lung = tested on: NCI-H226 lung
NCI-H23 lung = tested on: NCI-H23 lung
NCI-H460 lung = tested on: NCI-H460 lung
NCI-H522 lung = tested on: NCI-H522 lung
NCI/ADR-RES ovarian = tested on: NCI/ADR-RES ovarian
OVCAR-3 ovarian = tested on: OVCAR-3 ovarian
OVCAR-4 ovarian = tested on: OVCAR-4 ovarian
OVCAR-5 ovarian = tested on: OVCAR-5 ovarian
OVCAR-8 ovarian = tested on: OVCAR-8 ovarian
PC-3 prostate = tested on: PC-3 prostate
RPMI-8226 leukemia = tested on: RPMI-8226 leukemia
RXF 393 renal = tested on: RXF 393 renal
SF-268 CNS = tested on: SF-268 CNS
SF-295 CNS = tested on: SF-295 CNS
SK-MEL-2 melanoma = tested on: SK-MEL-2 melanoma
SK-MEL-28 melanoma = tested on: SK-MEL-28 melanoma
SK-MEL-5 melanoma = tested on: SK-MEL-5 melanoma
SK-OV-3 ovarian = tested on: SK-OV-3 ovarian
SN12C renal = tested on: SN12C renal
SNB-19 CNS = tested on: SNB-19 CNS
SR leukemia = tested on: SR leukemia
SW-620 colon = tested on: SW-620 colon
T-47D breast = tested on: T-47D breast
TK-10 renal = tested on: TK-10 renal
U251 CNS = tested on: U251 CNS
UACC-257 melanoma = tested on: UACC-257 melanoma
UACC-62 melanoma = tested on: UACC-62 melanoma
UO-31 renal = tested on: UO-31 renal
CCRF-CEM leukemia = tested on: CCRF-CEM leukemia
SNB-75 CNS = tested on: SNB-75 CNS

O=c1c2c3c(sc2[nH]c(=S)n1-c1ccccc1)CCCc1ccc([N+](=O)[O-])cc1-3
TGI (786-0 renal): > 100 µM | TGI (A498 renal): > 100 µM | TGI (A549 NSCLC): > 100 µM | TGI (ACHN renal): > 100 µM | TGI (BT-549 breast): 72.6 µM | TGI (CAKI-1 renal): > 100 µM | TGI (COLO 205 colon): > 100 µM | TGI (DU-145 prostate): > 100 µM | TGI (EKVX NSCLC): > 100 µM | TGI (HCC-2998 colon): 77.3 µM | TGI (HCT-116 colon): > 100 µM | TGI (HCT-15 colon): 72.7 µM | TGI (HL-60(TB) leukemia): 50.8 µM | TGI (HOP-62 NSCLC): > 100 µM | TGI (HOP-92 NSCLC): 76.6 µM | TGI (HS 578T breast): > 100 µM | TGI (HT29 colon): 61.3 µM | TGI (IGROV1 ovarian): 27.3 µM | TGI (K-562 leukemia): 35.3 µM | TGI (KM12 colon): > 100 µM | TGI (LOX IMVI melanoma): 62.2 µM | TGI (M14 melanoma): > 100 µM | TGI (MALME-3M melanoma): > 100 µM | TGI (MCF7 breast): > 100 µM | TGI (MDA-MB-231 breast): > 100 µM | TGI (MDA-MB-435): > 100 µM | TGI (MDA-N): > 100 µM | TGI (MOLT-4 leukemia): 52 µM | TGI (NCI-H226 lung): > 100 µM | TGI (NCI-H23 lung): > 100 µM | TGI (NCI-H460 lung): > 100 µM | TGI (NCI-H522 lung): 36.5 µM | TGI (NCI/ADR-RES ovarian): 74 µM | TGI (OVCAR-3 ovarian): > 100 µM | TGI (OVCAR-4 ovarian): > 100 µM | TGI (OVCAR-5 ovarian): > 100 µM | TGI (OVCAR-8 ovarian): > 100 µM | TGI (PC-3 prostate): > 100 µM | TGI (RPMI-8226 leukemia): 62.7 µM | TGI (RXF 393 renal): 38.7 µM | TGI (SF-268 CNS): > 100 µM | TGI (SF-295 CNS): > 100 µM | TGI (SK-MEL-2 melanoma): > 100 µM | TGI (SK-MEL-28 melanoma): > 100 µM | TGI (SK-MEL-5 melanoma): > 100 µM | TGI (SK-OV-3 ovarian): > 100 µM | TGI (SN12C renal): > 100 µM | TGI (SNB-19 CNS): > 100 µM | TGI (SR leukemia): 85.8 µM | TGI (SW-620 colon): 25.4 µM | TGI (T-47D breast): 37.1 µM | TGI (TK-10 renal): > 100 µM | TGI (U251 CNS): > 100 µM | TGI (UACC-257 melanoma): > 100 µM | TGI (UACC-62 melanoma): 85 µM | TGI (UO-31 renal): > 100 µM

COc1ccc(C)cc1N1C(=O)C2ON(Cc3ccc(CC(N)=O)cc3)C(c3c4ccccc4c(Cl)c4ccccc34)C2C1=O (stereo not drawn)
TGI (786-0 renal): 50.2 µM | TGI (A549 NSCLC): > 100 µM | TGI (ACHN renal): 75 µM | TGI (BT-549 breast): 74.5 µM | TGI (CAKI-1 renal): 76.5 µM | TGI (CCRF-CEM leukemia): > 100 µM | TGI (DU-145 prostate): 86.5 µM | TGI (EKVX NSCLC): 98 µM | TGI (HCT-116 colon): 32.7 µM | TGI (HCT-15 colon): 73.3 µM | TGI (HL-60(TB) leukemia): > 100 µM | TGI (HOP-62 NSCLC): 93.7 µM | TGI (HOP-92 NSCLC): > 100 µM | TGI (HS 578T breast): > 100 µM | TGI (HT29 colon): 40.9 µM | TGI (IGROV1 ovarian): > 100 µM | TGI (K-562 leukemia): > 100 µM | TGI (KM12 colon): 29.1 µM | TGI (LOX IMVI melanoma): 54.7 µM | TGI (M14 melanoma): 38.8 µM | TGI (MALME-3M melanoma): > 100 µM | TGI (MCF7 breast): > 100 µM | TGI (MDA-MB-231 breast): 49 µM | TGI (MDA-MB-435): 62.1 µM | TGI (MDA-N): 33 µM | TGI (MOLT-4 leukemia): > 100 µM | TGI (NCI-H23 lung): 96.4 µM | TGI (NCI-H460 lung): 36.6 µM | TGI (NCI-H522 lung): > 100 µM | TGI (NCI/ADR-RES ovarian): 76.9 µM | TGI (OVCAR-3 ovarian): > 100 µM | TGI (OVCAR-4 ovarian): 84.6 µM | TGI (OVCAR-5 ovarian): 58.5 µM | TGI (OVCAR-8 ovarian): 84.6 µM | TGI (PC-3 prostate): > 100 µM | TGI (RXF 393 renal): 33.7 µM | TGI (SF-268 CNS): 82.3 µM | TGI (SF-295 CNS): 69.1 µM | TGI (SK-MEL-2 melanoma): 44.5 µM | TGI (SK-MEL-28 melanoma): > 100 µM | TGI (SK-OV-3 ovarian): > 100 µM | TGI (SN12C renal): 45.7 µM | TGI (SNB-19 CNS): > 100 µM | TGI (SNB-75 CNS): 38.9 µM | TGI (SR leukemia): 48.6 µM | TGI (SW-620 colon): > 100 µM | TGI (T-47D breast): > 100 µM | TGI (TK-10 renal): 49.5 µM | TGI (U251 CNS): 60.4 µM | TGI (UACC-257 melanoma): 33.2 µM | TGI (UACC-62 melanoma): 45.2 µM | TGI (UO-31 renal): 48 µM
